Data on 7 molecules can be found in PMC9228152, “New Amino Naphthoquinone Derivatives as Anti-Trypanosoma cruzi Agents Targeting Trypanothione Reductase” (Pharmaceutics, 2022).

Read-outs that look alike come from different tables or passages of the source.

Assay [1] relates to T. cruzi epimastigotes, INC-5 strain. As to the kind of experiment: Growth inhibition of T. cruzi epimastigotes, INC-5 strain. In kind it is cell-based, Trypanosoma cruzi. The settings on record: epimastigotes, INC-5 strain, five days, means of three independent experiments, read-out: Epi INC-5 IC50. As for the experimental part:
(§1) Epimastigotes from T. cruzi strains NINOA and INC-5 were cultured in BHI (brain heart infusion broth, 89%) axenic medium, as reported in [26], at an initial concentration of 1 × 10^6 parasites/mL, at 28 °C, supplemented with 10% foetal bovine serum and 1% sodium penicillin-streptomycin. […] On the last day, the absorbance of the cultures was measured and related to the control. All measurements were carried out in triplicate. No toxic effect was attributable to DMSO. Since parasite growth is exponential, the data were analysed according to a first order equation, and the respective growth constant (k), corresponding to the slope, was calculated for controls and parasites treated with different drug concentrations. From these measurements, percentage growth inhibition (%GI) and half-maximal inhibitory concentration (IC50) values were calculated.

Assay [2] has as its system T. cruzi epimastigotes, NINOA strain. As to the kind of experiment: Growth inhibition of T. cruzi epimastigotes, NINOA strain. In kind it is cell-based. The following applies: Trypanosoma cruzi, 120 h, epimastigotes, NINOA strain; five days; means of three independent experiments; read-out: Epi NINOA IC50. On the procedure: as §1
In assay [3] the test system is T. cruzi trypomastigotes, INC-5 strain. As to the kind of experiment: microbe, parasite or virus in culture. Format: cell-based. The following applies: Trypanosoma cruzi; bloodstream trypomastigotes, INC-5 strain; 24 h at 4 °C; read-out: Trypo INC-5 LC50 (half-maximal lytic concentration). As for the experimental part:
(§2) Those compounds with the lowest IC50 values in the epimastigote studies of each strain were evaluated in trypomastigotes. For this purpose, bloodstream trypomastigotes of INC-5 and NINOA strains were used for peritoneal injection into 6−8-week-old CD1 mice. The peak of parasitemia was achieved after 4–6 weeks, at which time parasitised blood samples were obtained by cardiac puncture using sodium heparin as an anticoagulant and diluted to a concentration of 1 × 10^6 trypomastigotes/mL. 10 µL of each of the dilutions of the study compounds and Bzn, with these being placed in a 96-well plate, and 90 µL of infected blood was added, providing a final volume of 100 µL per well. The microplates were incubated at 4 °C for 24 h, and concentrations of 20 µM, 10 µM, and 5 µM of each compound were considered in these experiments. Each evaluation was performed in triplicate. Wells with untreated blood trypomastigotes were used as a negative lysis control and Bzn as a positive control. Then, the degree of lysis of trypomastigotes was determined by their reduction in number using an optical microscope according to the Brener–Pizzi method. For this purpose, 5 μL of blood was placed between a slide and a 13 × 13 coverslip. Mobile trypomastigotes were counted in 15 microscope fields at 40× magnification. Quantification of the degree of lysis for each case was expressed as a percentage considering the number of viable trypomastigotes with respect to the negative control. The half-maximal lytic concentration (LC50) was determined by linear regression. The experiments were carried out in accordance with the recommendations and approval of the local Ethics and Research Committee (Approval number: ENCB/CEI/078/2020).

Assay [4] deals with T. cruzi trypomastigotes, NINOA strain. As to the kind of experiment: microbe, parasite or virus in culture. Format: cell-based. The following applies: Trypanosoma cruzi; bloodstream trypomastigotes, NINOA strain; 24 h at 4 °C; read-out: Trypo NINOA LC50 (half-maximal lytic concentration). As for the experimental part:
as §2

The next assay has as its system J774 cells. Further details: method as in PMID 31709599. The settings on record: cited from earlier work.
For assay [5], the system named is NINOA strain of T. cruzi trypomastigotes. Further details: method as in PMID 31709599. The settings on record: cited from earlier work.
A further assay concerns J774 murine macrophages. As to the kind of experiment: Cytotoxicity on J774 macrophages (MTT). Format: cell-based. The settings on record: J774 macrophages, MTT, 24 h, read-out: J774 IC50. As for the experimental part:
Cytotoxicity assays for the compounds selected for their trypanocidal activity were performed on J774 macrophage cells using the MTT method. For this purpose, 50,000 cells/well resuspended in RPMI medium and 2% foetal bovine serum were seeded in a 96-well plate and incubated for 24 h at 37 °C. […] After 24 h of incubation, the existing culture medium was replaced in the plate with fresh culture medium along with […] each of the compound dilutions (100 to 1.25 μM) and Bzn to a final volume of 100 µL per well. This plate was then incubated in 5% CO2 for 24 h at 37 °C. The controls used were cells with medium as a positive control and cells without culture medium as a negative control. After the 24 h incubation, the morphology of the macrophages was observed under a microscope and then the culture medium was removed again and the MTT solution (5 mg/mL) was added. After 1 h incubation at 37 °C, the absorbance at 570 nm was recorded on an Elisa Epoch reader. The following formula was used to calculate the % cytotoxicity: %cytotoxicity = (100 − (mean number of cells with treatment/cells without treatment) × 100).

In the next assay the target is recombinant TcTR (Trypanosoma cruzi, UniProt P28593). As to the kind of experiment: Trypanothione reductase inhibition assay (TS2-dependent NADPH oxidation). In kind it is biochemical. The settings on record: for Ki: mixed-type inhibition, global nonlinear regression. As for the experimental part:
The inhibition of TcTR activity by 7j was evaluated by monitoring the trypanothione disulphide (TS2)-dependent NADPH oxidation by using the assay described before. The reaction mixture contained assay buffer (40 mM HEPES pH 7.4, 1 mM EDTA), recombinant TcTR (88-168 ng/mL), NADPH (the concentration depended on experiment), and different 7j concentrations when required, in a volume of 500 μL. The mixture was incubated at 37 °C for 3 min, and TS2 was added to start the reaction. The absorbance at 340 nm was recorded in real time for 10 min, and the activity was calculated from the slope of the curves as μmol of NADPH oxidised per min (e^340 = 6.22 mM^−1 cm^−1).

Assay [6] has as its system Y strain of T. cruzi epimastigote. More on the design: method as in doi:10.1039/C5RA10122K. The settings on record: read-out: IC50 against Y strain of T. cruzi epimastigote; cited from earlier work.
Assay [7] deals with epimastigotes of the Tulahuén strain. More on the design: method as in PMID 25127463. The settings on record: read-out: IC50 against epimastigotes of the Tulahuén strain; cited from earlier work.
In a further assay the test system is T. cruzi trypomastigotes. More on the design: method as in PMID 30670432. The settings on record: cited from earlier work.
In assay [8] the test system is trypomastigote cultures (Y strain). Further details: method as in PMID 28215783. The settings on record: cited from earlier work.
[9] abbreviates: alpha of the mixed-type inhibitor equation, replots of slope and 1/v axis intercept vs. 7j.

A word on the IC50: it is the midpoint of a concentration-inhibition curve. As usually defined, the Ki is a dissociation constant, usually derived from enzyme kinetics or from competition with a known ligand.

Chain of recombinant TcTR (P28593 whole entry): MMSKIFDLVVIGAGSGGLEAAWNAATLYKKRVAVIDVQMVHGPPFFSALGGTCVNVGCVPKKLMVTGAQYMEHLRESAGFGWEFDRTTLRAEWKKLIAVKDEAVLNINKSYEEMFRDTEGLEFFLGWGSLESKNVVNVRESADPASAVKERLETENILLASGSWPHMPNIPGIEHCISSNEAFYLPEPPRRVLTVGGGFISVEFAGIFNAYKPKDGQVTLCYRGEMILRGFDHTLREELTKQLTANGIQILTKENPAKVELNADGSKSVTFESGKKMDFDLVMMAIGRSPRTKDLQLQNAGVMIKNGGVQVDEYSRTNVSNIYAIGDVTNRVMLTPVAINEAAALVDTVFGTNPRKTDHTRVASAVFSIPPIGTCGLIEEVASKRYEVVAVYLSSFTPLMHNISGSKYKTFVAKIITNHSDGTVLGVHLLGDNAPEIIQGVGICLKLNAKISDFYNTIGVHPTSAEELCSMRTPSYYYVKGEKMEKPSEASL

Take `O=C(Cn1ccnc1[N+](=O)[O-])NCc1ccccc1` [Bzn, benznidazole, reference compound]: the IC50 was 42.3 ± 5.8 µM in assay [1] (Trypanosoma cruzi, 120 h); 8.21 ± 1.8 µM in assay [2]; 352 µM in the assay on J774 cells; 40.7 µM in [5]; 352 µM in the assay with J774 murine macrophages (Mus musculus, J774, 24 h). Moreover, the results for the LC50 in assay [3] and in assay [4] were 85.6 ± 4.23 µM and greater than 100 µM, respectively.
With `O=C1C(Cl)=C(N2CCC(NC(=O)c3cccc4ccccc34)CC2)C(=O)c2ccccc21` [Compound 7j, N-(1-(3-chloro-1,4-dioxo-1,4-dihydronaphthalen-2-yl)piperidin-4-yl)-1-naphthamide], the IC50 in assay [1] (Trypanosoma cruzi, 120 h) is less than 1 µM; in [1], 0.92 ± 0.01 µM; with J774 murine macrophages, 33 µM; with J774 murine macrophages (Mus musculus, J774, 24 h), roughly 25 µM. Further, on recombinant TcTR (setting [9]), the “α NADPH” value stood at 1.12. The “α TS2” value on recombinant TcTR (setting [9]) turned out to be 0.77. Also, the Ki was 18 ± 3.5 µM on recombinant TcTR (NADPH varied, TS2 fixed 200 µM, read-out: Ki 7j vs. NADPH) and 28 ± 4.5 µM at recombinant TcTR (TS2 varied, NADPH fixed 160 µM, read-out: Ki 7j vs. TS2). Further, the “Type of enzyme inhibition” value on recombinant TcTR (with respect to both substrates, TS2 and NADPH, Lineweaver-Burk plots) is on record as “simple mixed-type inhibitor”. In addition, the LC50 in assay [3] is 59.7 ± 3.72 µM; in [4], 98.1 ± 8.9 µM.
Take `O=C1C=C(Oc2cccc([N+](=O)[O-])c2)C(=O)c2ccccc21` [II, 2-(3-nitrophenoxy)-1,4-naphthoquinone]: the half-inhibitory concentration (IC50) in assay [6] is 0.02 µM.
On to `Cc1ccc(OC2=C(Cl)C(=O)c3ccccc3C2=O)cc1[N+](=O)[O-]` [III], for which the values for the IC50 (in the assay on J774 cells; in assay [5]) were 117 µM and 9.38 µM, respectively.
For `CCCCCCOc1ccc(NC2=CC(=O)c3ccccc3C2=O)cc1` [I], in [7], the IC50 was 1.72 µM.
For the molecule `O=C(Nc1nc(-c2ccccc2)c[nH]1)N1CCN(c2ccc(C(F)(F)F)cc2[N+](=O)[O-])CC1` [VI], the IC50 in the assay on T. cruzi trypomastigotes was 2.2 µM.
Take `Clc1ccc2nccc(NCCN3CCOCC3)c2c1` [V]: in assay [8], the IC50 is 67.7 µM.
